Test results published in the NIST ThermoML archive (doi:10.1021/acs.jced.8b00492).

Test: mn = molality of the nth substance listed, in mol/kg
Conditions: for surface tension liquid-gas: Ring tensiometer; for viscosity / speed of sound / mass density: 100 kPa, Liquid; for viscosity: Capillary tube (Ostwald / Ubbelohde) method; for speed of sound: Frequency=3 MHz, Single path-length method; for mass density: Vibrating tube method

C1N2CN3CN1CN(C2)C3 [1,3,5,7-tetraazaadamantane] + O
Conditions	mass density [kg/m3]	speed of sound [m/s]	surface tension liquid-gas [mN/m]	viscosity [mPa·s]
293.15 K, m1 = 0.207	1004.3	1493.6	69.2	1.075
293.15 K, m1 = 0.425	1010.5	1504.9	67.4	1.168
293.15 K, m1 = 0.654	1016.6	1516.5	66.2	1.287
293.15 K, m1 = 0.897	1022.9	1528.8	65.4	1.419
293.15 K, m1 = 1.164	1029.5	1541.8	64.8	1.579
293.15 K, m1 = 1.449	1036.1	1555.9	64.4	1.711
293.15 K, m1 = 1.748	1042.9	1569.3	64	1.911
293.15 K, m1 = 2.068	1049.6	1583.3	63.7	2.142
293.15 K, m1 = 2.412	1056.3	1597.1	63.5	2.477
293.15 K, m1 = 2.779	1063.3	1611.8	63.3	2.777
293.15 K, m1 = 3.181	1070.4	1626.9	63.2	3.217
293.15 K, m1 = 3.617	1077.6	1642.5	63.1	3.698
293.15 K, m1 = 4.088	1084.9	1658.4	63	4.214
293.15 K, m1 = 4.609	1092.3	1674.7	62.9	4.991
293.15 K, m1 = 5.155	1099.8	1691.4	62.9	5.869
303.15 K, m1 = 0.207	1001.6	1519	67.5	0.88
303.15 K, m1 = 0.425	1007.7	1529.4	66.1	0.942
303.15 K, m1 = 0.654	1013.8	1539.3	65	1.025
303.15 K, m1 = 0.897	1019.9	1550	64.2	1.085
303.15 K, m1 = 1.164	1026.4	1561.1	63.5	1.193
303.15 K, m1 = 1.449	1032.9	1573.6	62.9	1.309
303.15 K, m1 = 1.748	1039.4	1585	62.5	1.472
303.15 K, m1 = 2.068	1046	1597.4	62.2	1.631
303.15 K, m1 = 2.412	1052.9	1609.3	61.9	1.875
303.15 K, m1 = 2.779	1059.7	1622.1	61.7	2.094
303.15 K, m1 = 3.181	1066.6	1635.2	61.5	2.402
303.15 K, m1 = 3.617	1073.6	1648.7	61.4	2.743
303.15 K, m1 = 4.088	1080.8	1662.4	61.3	3.092
303.15 K, m1 = 4.609	1088	1676.5	61.2	3.635
303.15 K, m1 = 5.155	1095	1690.9	61.2	4.21
313.15 K, m1 = 0.207	998	1538	66.3	0.718
313.15 K, m1 = 0.425	1004.1	1546.6	64.7	0.761
313.15 K, m1 = 0.654	1010.1	1555.4	63.5	0.806
313.15 K, m1 = 0.897	1016.1	1565	62.8	0.87
313.15 K, m1 = 1.164	1022.5	1574.7	62.1	0.936
313.15 K, m1 = 1.449	1028.9	1585.8	61.5	1.017
313.15 K, m1 = 1.748	1035.4	1595.6	61.1	1.158
313.15 K, m1 = 2.068	1041.8	1606.6	60.7	1.26
313.15 K, m1 = 2.412	1048.3	1616	60.5	1.441
313.15 K, m1 = 2.779	1055	1627.1	60.3	1.597
313.15 K, m1 = 3.181	1061.8	1638.5	60.2	1.82
313.15 K, m1 = 3.617	1068.7	1650.1	60.1	2.063
313.15 K, m1 = 4.088	1075.6	1661.9	60	2.296
313.15 K, m1 = 4.609	1082.7	1674	59.9	2.687
313.15 K, m1 = 5.155	1089.8	1687.2	59.9	3.084
323.15 K, m1 = 0.207	993.9	1549.2	65.1	0.596
323.15 K, m1 = 0.425	999.7	1557.4	63.4	0.635
323.15 K, m1 = 0.654	1005.6	1566.1	62.1	0.671
323.15 K, m1 = 0.897	1011	1574.4	61.2	0.716
323.15 K, m1 = 1.164	1018	1583	60.5	0.755
323.15 K, m1 = 1.449	1024.3	1593.1	60.1	0.819
323.15 K, m1 = 1.748	1030.7	1601.3	59.7	0.908
323.15 K, m1 = 2.068	1037.1	1611.1	59.5	0.985
323.15 K, m1 = 2.412	1043.5	1620	59.2	1.131
323.15 K, m1 = 2.779	1050.1	1629.6	59	1.233
323.15 K, m1 = 3.181	1056.8	1639.4	58.9	1.387
323.15 K, m1 = 3.617	1063.5	1649.3	58.8	1.569
323.15 K, m1 = 4.088	1070.4	1659.4	58.7	1.77
323.15 K, m1 = 4.609	1077.3	1669.7	58.6	2.027
323.15 K, m1 = 5.155	1084.2	1680.2	58.6	2.327
